In one assay the test system is HRSV. As to conditions: prophylactic use, high risk infants; cited from earlier work.
Assay [1] concerns genotype A, “Long” strain RSV. As to the kind of experiment: RSV-A assay (CPE, ATPlite readout in Hep-2 cells). The conditions noted are these: human respiratory syncytial virus, activity class. It counts as cell-based, Human respiratory syncytial virus. An outline of the steps:
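Hep-2 cells (8,000/well) infected with RSV Long strain at MOI 0.1 in the presence of 2-fold compound dilutions in duplicate. After 5 days, cell viability measured by ATPlite luminescence, normalized between virus-only and uninfected cell controls; EC50 reported.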

In assay [2] the test system is HMPV clinical isolate A2 strain TN 94-49. As to the kind of experiment: HMPV antiviral assay, Method 2 (LLC-MK2 cells with CP-100-356, ATP-Lite). It counts as cell-based. As to conditions: human metapneumovirus; hMPV A2 TN/94-49, LLC-MK2 cells with CP-100-356, Method 2. An outline of the steps: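 LLC-MK2 rhesus kidney cells (5,000/well) infected in suspension with HMPV A2 TN 94-49 at MOI 0.16, in serum-free medium with final 2 μg/mL TPCK-trypsin and 2 μM CP-100-356. Compounds tested in duplicate from 200 nM, 2.5-fold, 10 points; 7 days at 37 °C. Cell health by ATP-Lite luminescence; EC50 by four-parameter fit.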

For assay [3] the test system is unchanged. Kind of assay: HMPV antiviral assay, Method 1 (LLC-MK2 cells, ATP-Lite). Type of assay: cell-based. As to conditions: human metapneumovirus, hMPV A2 TN/94-49, LLC-MK2 cells. An outline of the steps:
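LLC-MK2 cells (5,000/well) infected in suspension with HMPV A2 TN 94-49 at MOI 0.005 in serum-free OptiMEM with 2 μg/mL final TPCK-trypsin, compounds in duplicate from 2 μM top, 2.5-fold, 10 points. After 7 days at 37° C, cell health by ATP-Lite luminescence normalised to virus and cell controls; EC50 from four-parameter fit.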

Here are results for 4 compounds from patent publication US20240368174A1, “Antiviral Heterocyclic Compounds” (Enanta Pharmaceuticals, Inc., priority 2023, published 2024).

pEC50: −log10 of the molar value.

With “Palivizumab: "a monoclonal antibody that is approved for prophylactic use, but its use is limited due to its high price"”, in the assay with HRSV, the “effective in reducing hospitalizations” value is 60%.

Usually pEC50 stands for −log10 of the EC50, conventionally taken in molar units. Read a high pEC50 as a small EC50. On to `COc1cc(C(=O)NC[C@](O)(c2cc3c(c(-c4ccc5c(c4Cl)OC(F)(F)O5)n2)OC[C@]3(C)C(N)=O)C2CC2)cc2cn(C(F)F)nc12` [Example 457], for which the results for the pEC50 in assay [1], in assay [2] and in assay [3] were more than 6.70, more than 6.70 and more than 6.30, respectively.

Regarding `COc1cc(C(=O)NC[C@](O)(c2cc3c(c(-c4cc(C)c(F)cc4F)n2)OC[C@]3(C)C(N)=O)C2CC2)cc2cn(C3CC3)nc12` [Example 385], the figures for the pEC50 in assay [1], in assay [2] and in assay [3] were more than 6.70, more than 6.70 and more than 6.30, respectively.

As to `COc1cccc([C@](O)(CNC(=O)c2cc(OC)c3nn(C4(F)CC4)cc3c2)c2cc3c(c(-c4cc(Cl)c(F)cc4F)n2)OC[C@]3(C)C(N)=O)c1` [Example 162], the pEC50 is more than 6.70 in assay [1], more than 6.70 in assay [2] and more than 6.30 in assay [3].
